Reference: patent publication US20250268849A1, “TREATMENT OF LOW-GRADE GLIOMA WITH MIRDAMETINIB” (St. Jude Children’s Research Hospital, Inc., priority 2022, published 2025)

Test system: Low-Grade Glioma (LGG)
Assay: Phase I/II trial of single agent mirdametinib in patients with low-grade glioma
Format: in vivo, human
Experimental: Example 1: Phase I/II Evaluation of Single Agent Mirdametinib, a Brain-Penetrant MEK1/2 Inhibitor, for the Treatment of Children, Adolescents, and Young Adults With Low-Grade Glioma (LGG) A multi-arm phase I/II trial of mirdametinib is currently being conducted in patients ≥2 and <25 years with LGG. Phase I requires participants have no prior exposure to MEK inhibitors and recurrent/progressive disease with biopsy-proven evidence of MAPK pathway activation. Three escalating dose levels (2 mg/m^2/dose BID, 2.5 mg/m^2/dose BID and 3 mg/m^2/dose BID) are planned using a rolling 6 design. The median age enrolled in the study is 10 years (3-21 years old). 10 patients have somatic gene rearrangements (7 BRAF, 1 MYB, 1 RAF1, 1 FGFR1); 1 patient has a NF1 germline mutation; and 3 patients have metastatic disease. […] Of the 11 patients having a somatic gene rearrangement or NF1, 4 patients with BRAF and the 1 patient with FGFR1 received a dose of 2 mg/m^2 BID. The remainder of the 11 patients (3 BRAF, 1 MYB, 1 NF1, and 1 RAF1) received a dose of 2.5 mg/m^2 BID.

Structure (SMILES): O=C(NOC[C@H](O)CO)c1ccc(F)c(F)c1Nc1ccc(I)cc1F (single isomer, unassigned) [mirdametinib]
- Minor Response (MR), patients (decrease by 25-50%) (2 mg/m^2 BID (N = 5)): 4 (80.0%)
- Partial Response (PR), patients (decrease in tumor size by 50-75%) (2 mg/m^2 BID (N = 5), patients with somatic gene rearrangement or NF1, as of cut-off date): 1 (20.0%)
- Minor Response (MR), patients (decrease by 25-50%) (2.5 mg/m^2 BID (N = 6)): 3 (50.0%)
- Stable Disease (SD), patients (stable tumor size or decrease up to 25%) (2.5 mg/m^2 BID (N = 6)): 3 (50.0%)
- Minor Response (MR), patients (decrease by 25-50%) (Total (N = 11)): 7 (63.6%)
- Stable Disease (SD), patients (stable tumor size or decrease up to 25%) (Total (N = 11)): 3 (27.3%)
- Partial Response (PR), patients (decrease in tumor size by 50-75%) (Total (N = 11), 2 and 2.5 mg/m^2 BID pooled): 1 (9.1%)
- dose-limiting toxicities (dose level 1 (2 mg/m^2)): No dose-limiting toxicities occurred
- tolerability (dosed continuously, recurrent/progressive pediatric LGG): well-tolerated
- patients with minor response (>25%-<50% decrease) (patients who completed at least one follow-up disease evaluation): Four of the six patients
- MEK related retinopathy or cardiopathy (phase I): No MEK related retinopathy or cardiopathy has been observed
- disease progressions (phase I): No disease progressions have occurred
- treatment-related adverse events, grade (phase I, dose levels 1 and 2): Only grade 1 and 2
